# Results from patent US10159676B2, “Induction of tumor hypoxia for cancer therapy” (Virginia Commonwealth University, priority 2008, dated 2018).
# Key:
# UCI-101 tumor xenografts = assay: Tumor xenograft size after multiple dosing (days 8, 10, 12); format: in vivo, nude mice; details: ip on days 8, 10 and 12; stilbene 5c 50 mg/kg, tirapazamine 60 mg/kg; day 14; 6 mice per group
# Protocol: The long and short axes of tumor were measured to calculate tumor size and plotted against days. Each treatment group contains 6 mice.
# Mice were then sacrificed at day 14. The long and short axes of tumors were measured to calculate tumor size and plotted against days. Each treatment group contains 6 mice.
# Tumor cell lines used in this study include UCI-101 ovarian cancer cells and Hep3B hepatocellular carcinoma cells. Cells are grown in IMEM and DMEM, respectively, supplemented with 10% fetal bovine serum, glutamine, and penicillium/streptomycin in 5% CO2 humidified environment. When cells were grown to 80% confluent, cells were harvested with 1% trypsin and washed with phosphate-buffered saline three times before injected subcutaneously into nude mice. For mouse xenograft studies, 2×10^6 tumor cells were injected in the back subcutaneously. Nude mice were purchased from NCI Development Therapeutic Program as described. Tumor size was monitored by long and short axes (a and b, respectively) by a caliber and tumor volume was calculated by the formula ab^2/2. […] Treatment with AAA bevacizumab was done by tail vein injection at a dose of 10 mg/kg.
# Next we measured the size of tumor xenografts after multiple dosing. Nude mice were injected subcutaneously with UCI-101 cells and tumor became visible after day 7. […] Tumor xenografts were measured and sizes are plotted in FIG. 7.
# [1] = Weight loss in multiple dosing xenograft study; format: in vivo, nude mice; details: day 14; tirapazamine 60 mg/kg ip days 8, 10, 12 (alone or with stilbene 5c 50 mg/kg)
# Protocol: Next we measured the size of tumor xenografts after multiple dosing. Nude mice were injected subcutaneously with UCI-101 cells and tumor became visible after day 7. Treatment was administered by intraperitoneal injection on days 8, 10 and 12 with 6 mice in each group. […] […]. […].
# hypoxic cells = details: cited from earlier work
# [2] = in vivo; cited from earlier work
# [3] = system: stage IV non-small cell lung cancer; details: cited from earlier work
# tumor = details: tirapazamine alone given at 70 mg/kg; cited from earlier work
# [4] = cited from earlier work
# UCI-101 tumor xenograft = assay: Tumor growth, stilbene 5c with or without bevacizumab; format: in vivo, nude mice; details: stilbene 5c 20 mg/kg/day Monday to Friday for two weeks; bevacizumab 10 mg/kg twice a week for 5 doses
# Protocol: FIG. 4. Efficacy of stilbene 5c in vivo and enhanced effect by bevacizumab. Nude mice were injected with UCI-101 cells subcutaneously and mice are treated with stilbene 5c at 20 mg/kg/day Monday-Friday with or without bevacizumab 10 mg/kg twice a week. Tumor volume was calculated by the long and short axes. Each group contains 8 mice and the average tumor volumes and standard deviations were plotted against days.
# Tumor cell lines used in this study include UCI-101 ovarian cancer cells and Hep3B hepatocellular carcinoma cells. Cells are grown in IMEM and DMEM, respectively, supplemented with 10% fetal bovine serum, glutamine, and penicillium/streptomycin in 5% CO2 humidified environment. When cells were grown to 80% confluent, cells were harvested with 1% trypsin and washed with phosphate-buffered saline three times before injected subcutaneously into nude mice. For mouse xenograft studies, 2×10^6 tumor cells were injected in the back subcutaneously. Nude mice were purchased from NCI Development Therapeutic Program as described. Tumor size was monitored by long and short axes (a and b, respectively) by a caliber and tumor volume was calculated by the formula ab^2/2. […]. Treatment with AAA bevacizumab was done by tail vein injection at a dose of 10 mg/kg.
# Next we used ovarian cancer UCI101 cells to study the in vivo efficacy of stilbene 5c We first administered stilbene 5c with intraperitoneal injection at 25 mg/kg three times a week. Tumor volume was calculated by measuring the long and short axes. […] The failure could be due to the possibility that intermittent dosing leaves a viable rim of tumor, which survives the treatment of VDAs by getting nutritional and blood support from surrounding normal vasculature. When treatment with VDAs is stopped, the viable rim of tumor grows quickly. Tumor vasculature recovers quickly by recruitment of the mobilized endothelial progenitor cells. Based on this rationale, we combined stilbene 5c with bevacizumab, which was used to neutralize VEGF secreted by UCI-101 tumor cells. […]
# [5] = in vivo; cited from earlier work; remark: listed apart in the source
# [6] = phase I, intravenous every three weeks
Molecule,size of tumor compared with the control (UCI-101 tumor xenografts),weight loss [1] [%],greater toxicity to hypoxic cells compared to well-oxygenated cells (hypoxic cells),potential side effects in animal studies [2],"response rate, overall survival, or progression free survival ([3]; tirapazamine 260-330 mg/m^2 added to carboplatin and paclitaxel vs placebo)",systemic toxicity ([3]; tirapazamine added to carboplatin and paclitaxel vs placebo),tumor growth suppression (tumor),"tolerated dose, tirapazamine by itself ([4]; phase I and phase II trials)","dose with dose limiting toxicities (reversible ototoxicity and transient visual abnormality) [4, 6]","maximum tolerated dose (MTD) [4, 6] [mg/m^2]",tumor growth suppression (UCI-101 tumor xenograft),half-life [5]
"Nc1n[n+]([O-])c2ccccc2[n+]1[O-] [tirapazamine, 3-amino-1,2,4-benzotriazine-1,4-di-N-oxide]",about 50%,20,15-200 fold,"bone marrow toxicity, necrosis of the olfactory nerve, and retinal degeneration",no benefit,increased systemic toxicity,no effect,up to 390 mg/m^2,above 330 mg/m^2,390,,
bevacizumab: a monoclonal antibody against vascular endothelial growth factor (VEGF) [reference compound],,,,,,,,,,,about 25%,over 7 days
